Test results reported in US20150038435A1, “N-TERMINALLY MODIFIED OLIGOPEPTIDES AND USES THEREOF” (Novo Nordisk A/S, priority 2012, published 2015).
*: point of attachment. Lauroyl = CCCCCCCCCCCC(=O)*

Assays:
Chymotrypsin = experiment: Inhibition of enzymatic degradation of a model GLP-1 (FRET substrate) by chymotrypsin; format: biochemical; settings: compound 0.1 mM, buffer containing 8% DMSO
Outline: (§1)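 MCA/DNP-labelled model GLP-1 FRET substrate (10 μl of 100 μM stock) in Dulbecco's PBS at 37° C with varying acylated peptide; fluorescence (ex 320/em 405 nm) read every minute for ≥30 min. Initial slopes from linear regression, duplicates averaged; EC50 by sigmoidal logistic fit of slope vs concentration.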

[1] = Hydrophobicity: retention time during reverse phase HPLC; format: physicochemical; settings: Acquity CSH C18; pH 7.2 buffer/CH3CN gradient; 40° C.
Source text: The retention time (RT) during reverse phase HPLC was taken as a measure of hydrophobicity of an N-terminally modified peptide or oligopeptide of the invention, where the connection is: The longer the RT, the more hydrophobic N-terminally modified peptide or oligopeptide. The following running conditions were applied during HPLC analysis:
Buffer B: 70% (v/v) aq. CH3CN

Trypsin = experiment: Inhibition of enzymatic degradation of a model GLP-1 (FRET substrate) by trypsin; format: biochemical; settings: compound 0.1 mM, buffer containing 8% DMSO
Outline: as §1

Row | Substance | RT (retention time during reverse phase HPLC as a measure of hydrophobicity) [1] [min] | Slope of the initial increase in fluorescence obtained during incubation with 0.001 mg/ml Chymotrypsin (Chymotrypsin) | Slope of the initial increase in fluorescence obtained during incubation with 0.001 mg/ml Trypsin (Trypsin)
1 | N-dodecanoyl-Glu-Ala-Pro-Tyr-OH (Lauroyl-EAPY-OH; SMILES CCCCCCCCCCCC(=O)N[C@@H](CCC(=O)O)C(=O)N[C@@H](C)C(=O)N1CCC[C@H]1C(=O)N[C@@H](Cc1ccc(O)cc1)C(=O)O) [Example 105] | 3.91 | 1.31 | 1.56
2 | N-dodecanoyl-Gly-Ala-Ala-Pro-Tyr-OH [Example 36] | 5.33 | 0.16 | 1.47
3 | N-dodecanoyl-His-Ala-Pro-Tyr-OH (Lauroyl-HAPY-OH; SMILES CCCCCCCCCCCC(=O)N[C@@H](Cc1c[nH]cn1)C(=O)N[C@@H](C)C(=O)N1CCC[C@H]1C(=O)N[C@@H](Cc1ccc(O)cc1)C(=O)O) [Example 39] | 5.08 | 0.27 | 1.84
4 | N-dodecanoyl-Ile-Ala-Pro-Tyr-OH (Lauroyl-IAPY-OH; SMILES CCCCCCCCCCCC(=O)N[C@H](C(=O)N[C@@H](C)C(=O)N1CCC[C@H]1C(=O)N[C@@H](Cc1ccc(O)cc1)C(=O)O)[C@@H](C)CC) [Example 41] | 7.76 | 0.84 | 1.96
5 | N-dodecanoyl-Leu-Ala-Pro-Tyr-OH (Lauroyl-LAPY-OH; SMILES CCCCCCCCCCCC(=O)N[C@@H](CC(C)C)C(=O)N[C@@H](C)C(=O)N1CCC[C@H]1C(=O)N[C@@H](Cc1ccc(O)cc1)C(=O)O) [Example 43] | 7.86 | 0.21 | 1.36

Second part, led by results:

Row | RT (retention time during reverse phase HPLC as a measure of hydrophobicity) [1] [min] | Substance | Slope of the initial increase in fluorescence obtained during incubation with 0.001 mg/ml Chymotrypsin (Chymotrypsin) | Slope of the initial increase in fluorescence obtained during incubation with 0.001 mg/ml Trypsin (Trypsin)
6 | 3.91 | N-dodecanoyl-Glu-Pro-Tyr-OH [Example 117] | 1.82 | 1.66
7 | 5.35 | N-dodecanoyl-Gly-Pro-Tyr-OH [Example 118] | 1.94 | 1.84
8 | 4.94 | N-dodecanoyl-His-Ala-Ala-Pro-Tyr-OH [Example 38] | 0.02 | 1.66
9 | 5.12 | N-dodecanoyl-His-Pro-Tyr-OH [Example 119] | 0.70 | 2.13
10 | 7.82 | N-dodecanoyl-Ile-Pro-Tyr-OH [Example 120] | 0.17 | 1.08
11 | 7.87 | N-dodecanoyl-Leu-Ala-Ala-Pro-Tyr-OH [Example 42] | 0.00 | 0.89
12 | 7.77 | N-dodecanoyl-Leu-Pro-Tyr-OH [Example 121] | 0.34 | 1.35
